Test results: US20060035995A1, “Photosensitive amine generator, photocurable composition and photoreactive adhesive composition” (Sekisui Chemical Co., Ltd., priority 2000, published 2006)

What was measured:
[1] = radiation at 254 nm; cited from earlier work
[2] = Compatibility with the epoxy resin (EPICOAT 828); format: physicochemical; conditions: 1 part by weight of compound in 100 parts by weight of epoxy resin (EPICOAT 828)
Excerpt: (§1) Evaluation was made by three ranks, i.e., by 0 if the composition dissolved completely and provided a clear mixture, by ▴ if it almost dissolved but provided a slightly cloudy mixture and by X if it little dissolved.

[3] = Solubility in tetrahydrofuran; format: physicochemical; conditions: 1 part by weight of compound in 100 parts by weight of tetrahydrofuran
Excerpt: as §1

[4] = Compatibility with the urethane prepolymer (1); format: physicochemical; conditions: 1 part by weight of compound in 100 parts by weight of urethane prepolymer (1)
Excerpt: as §1

Solubility Epoxy Resin [2]	Solubility Prepolymer [4]	Structure (SMILES)	quantum yield [1]	Solubility THF [3]
–	–	NC(=O)OCc1ccccc1[N+](=O)[O-] [o-nitrobenzyl carbamate]	about 0.13	–
◯	◯	C=C(C)C(=O)OCCNC(=O)ON=C(C)c1ccccc1 [Example 4]	–	◯
–	–	CC(=NOC(=O)NCCCCCCNC(=O)ON=C(C)c1ccccc1)c1ccccc1 [Example 1]	–	◯
